The text below walks through data of patent publication US20240279304A1, “DSG2 COMPOSITIONS AND METHODS” (Arvada Therapeutics, Inc., priority 2021, published 2024).

Series [1] can be described thus: Dynamic light scattering (DLS) of DSG2 fusion polypeptides. To be noted: average polymer distribution index. The series is classed as physicochemical. The source says:
6 candidates were compared to the reference sample.

The subject of series [2] is human iPSC cardiomyocytes. The series can be described thus: CiPA multielectrode array (MEA) assay, sodium spike. Type of series: cell-based. To be noted: 1.1 μg/mL DSG2FP #1; anti-DSG2 antibodies 0.5 μg/mL. Here is the method: To determine the effect of anti-DSG2 antibodies in cardiomyocytes, the cardiac in vitro proarrhythmia (CiPA) assay was performed (Sager et al. Am Heart J 2014; 167:292-300; the contents of which are herein incorporated by reference in its entirety). CiPA is envisioned to consist of four components: (1) an evaluation of the effects of test agents on cardiac ion channel assays; (2) in silico modeling of the cardiac action potential based on the ion channel results to integrate the data with cardiac function; (3) experimental measurement of test agent effects in human ventricular myocytes to confirm the modeling result; and (4) scoring the results. […] The sodium spike quantified below is a measurement of the specific sodium channel current in the cardiomyocyte and is also described in Blinova K, et al. Cell Rep. […] The parameters evaluated include measuring a change in the spike in the component of electrical signal propagation (e.g. sodium spike) and cell index—a function of cell impedance and cell number. […]
Commercially available anti-DSG2 antibodies were tested in the cardiomyocyte CiPA assay. […] The voltage (μV) is measured at time intervals of 0, 1 hour, 12 hours, 24 hours, 48 hours, 72 hours, and 96 hours. […]

Series [3] deals with anti-DSG2 antibodies in sera of ARVC patients. The experiment in a line: Electrochemical immunoassay, blocking of ARVC patient sera binding to DSG2 extracellular domain. On the set-up: species or system human. To be noted: fusion polypeptides 5 μg/mL; patient sera 10% (v/v); FIG. 5. Here is the method:
DSG2 fusion polypeptides were investigated for the ability to block the binding of anti-DSG2 antibodies in sera of ARVC patients to the DSG2 extracellular domain in an electrochemical immunoassay. The fusion polypeptides were added to a final concentration of 5 μg/mL and patient sera were used at a final concentration of 10% (v/v). The results are shown in the series of bar charts in FIG. 5, where the numbers 961, 965, 978, 986 and 964 indicate ARVC patient serum samples.
In FIG. 5, the first data series from the left is for DSG2FP #1 (described above as amino acids 49-608 of SEQ ID NO:30; Linker (IEGRMD (SEQ ID NO: 28)); amino acids 100-330 of IgG1 (SEQ ID NO: 4). The second data series from the left is for DSG2(50-602)-6×His, which is a fusion polypeptide of DSG2 amino acids 50-602 of SEQ ID NO: 1 (complete extracellular domain) to a hexahistidine peptide tag. The third data series from the left is for a combination of fusion polypeptides which includes EC1(50-155)-6×His, a fusion of DSG2 amino acids 50-155 of SEQ ID NO: 1 (EC1) to a hexahistidine peptide tag and EC2(151-268)-6×His, a fusion of DSG2 amino acids 151-268 of SEQ ID NO: 1 (EC2) to a hexahistidine peptide tag. […] It is likely that other affinity tags may be determined to be useful in alternative embodiments of DSG2 polypeptides, with examples including, but not limited to CBP, MBP, streptavidin and GST, for example. […]

For the next series, the system named is anti-DSG2 antibody. The series can be described thus: anti-DSG2 antibody meso scale discovery (MSD) assay, blocking of anti-DSG2 antibody. The series is classed as binding. To be noted: for % inhibition: fraction C (table title). Here is the method: (§1) The DSG2 fusion polypeptides were tested for the ability to block anti-DSG2 antibody by an anti-DSG2 antibody meso scale discovery (MSD) assay. […] The DSG2 fusion polypeptides were subjected to size exclusion chromatography and different elution fractions were examined. […] As shown in Table 7 and FIG. 1B, FIG. 1C, and FIG. 1D, enriching for fraction C improved the ability of the DSG2 fusion polypeptides to block ARVC patient serum.

The subject of series [4] is ARVC serum (anti-DSG2 antibodies in serum obtained from ARVC patients). The series can be described thus: anti-DSG2 antibody MSD assay, blocking of ARVC patient serum. Type of series: binding, human. To be noted: for % inhibition: fraction C (table title). On the set-up: % inhibition: concentration or dose not given beside the values. Here is the method: as §1
ARVC diagnosis is based on complex tool known as Task Force Criteria, which can lead to varying levels of conviction about ARVC diagnosis. The utility of DSG2 antibodies as an indicator of ARVC disease state and severity was explored. Approximately 50 cc serum was collected from diagnosed ARVC patients. A total of 10 ARVC patients and 5 healthy controls were used for the analysis. ARVC serum samples were separated into more robust diagnosis and less robust diagnosis, based on available data in the patient medical records and anti-DSG2 antibody levels were compared using an anti-DSG2 antibody meso scale discovery (MSD)-based assay.

“Also recorded” adds a separate entry of the source.

The term % inhibition denotes the share of the control response that was lost under treatment. On to “DSG2FP#1: R&D Systems DSG2 extracellular domain (49-608 of SEQ ID NO: 30); linker IEGRMD; amino acids 100-330 of IgG1”, for which the PDI in series [1] worked out at 0.33. Further, the “rescue of the effect of anti-DSG2 antibodies on cardiomyocyte sodium spike (in words)” value in series [2] is on record as “rescued; also recorded: completely blocks the effect of the anti-DSG2 antibodies on the sodium spike”. Moreover, the “blocking activity (inhibition; 100% = complete blocking)” value in series [3] is reported as “best blocking activity”. In addition, the “ability to bind to and block anti-DSG2 antibody (in words)” value in the series on anti-DSG2 antibody is “able to bind and block anti-DSG2 antibody”. Also, the “% inhibition” value came out at 63.8% with anti-DSG2 antibody (sample: Anti-DSG2 antibody (200 ng/mL) control); 88.4% with anti-DSG2 antibody (sample: Anti-DSG2 antibody (1000 ng/mL) control); 4.8% in the series on anti-DSG2 antibody (sample: no antibody control); 96.7% in series [4] (sample: ARVC serum 1); 82.9% in series [4] (sample: ARVC serum 2); 95.8% in series [4] (sample: ARVC serum 3). Besides, the “% inhibition” value in series [4] (sample: ARVC serum 4) came out at 95.7%; in series [4] (sample: ARVC serum 5), 93.1%. The “ability to bind and block ARVC serum (in words)” value in series [4] was “able to bind and block anti-DSG2 antibody as well as serum obtained from ARVC patients”. Also, in series [4] (Example 3, competing DSG2 polypeptide added), the “blocking of assay signal from ARVC patient serum samples with strong clinical data (in words)” value is listed as “could also be blocked”.
